Data set [1] deals with human MCF7 breast carcinoma. The experiment in a line: MTT cell proliferation assay, MCF7. It counts as cell-based. Conditions: MCF7, 72 h treatment; for IC50: MTT, read-out: IC50 (concentration inducing 50% cell survival inhibition). The procedure:
(§1) The cytotoxicity of the compounds, expressed as IC50 values after 72 h incubation (except in two cases where it is expressed as the % of cell viability at the maximum concentration tested of 100 μM) are reported in Table 3.
(§2) Human MCF7 breast carcinoma, human U87 glioblastoma, human LoVo colon adenocarcinoma cell lines and C6 rat glioma cells were used. As recommended for these cell lines, the base medium used (EuroClone, Pero (MI), Italy) was RPMI for MCF7 cells, DMEM for U87 and C6 cells, and F-12/HAM for LoVo cells, enriched with fetal bovine serum (10%), penicillin (100 U/mL)/streptomycin (100 μg/mL) (1%) and glutamine 200 mM (1%) (EuroClone, Pero (MI), Italy). Cells were incubated at 37 °C under an atmosphere containing 5% CO2.
(§3) Determination of cell growth inhibition was performed on MCF7, U87 and LoVo cell lines, using the 3-[4,5-dimethylthiazol-2-yl]-2,5-diphenyltetrazoliumbromide (MTT) assay. The determination of the % of cell viability after treatment with the test compounds, was performed as described by Denora et al.. Briefly, cells were dispensed on 96 microtiter plates at a density of 5000 cells/well and, after overnight incubation, were exposed for 72 h to solutions of the compounds with concentration in the range 0.01–100 µM. After addition of MTT (10 μL of 0.5% w/v in PBS) and incubation for an additional 3 h at 37 °C, the cells were lysed with 100 μL of DMSO/EtOH 1:1 (v/v) solution, dispensed in each well. A PerkinElmer 2030 multilabel reader Victor TM X3 (manufactured for WALLAC Oy, Turku, Finland by PerkinElmer Singapore was used for the absorbance determination at 570 nm.
For orientation: Formazan colour is commonly taken as a measure of viable cells.

Data set [2] concerns human U87 glioblastoma. The data set can be described thus: MTT cell proliferation assay, U87. It counts as cell-based. Conditions: U87, 72 h treatment, read-out: IC50 (concentration inducing 50% cell survival inhibition). The procedure: as §1, §2, §3
Data set [3] has as its system human LoVo colon adenocarcinoma. The data set can be described thus: MTT cell proliferation assay, LoVo. Type of data set: cell-based. As to conditions: 72 h treatment; for IC50: MTT, read-out: IC50 (concentration inducing 50% cell survival inhibition). As to the method: as §1, §2, §3
The test system of data set [4] is LoVo colon cancer cells. The data set can be described thus: Platinum cellular uptake by ICP-MS. Type of data set: cell-based, human. An excerpt: As already reported, oxaliplatin is a chemotherapeutic drug mainly used for the treatment of colorectal cancer, therefore, we extended our investigation only to LoVo cells. First we measured the intracellular accumulation of platinum by ICP-MS. […] Most likely, organic cation transporters (OCT) may facilitate the uptake of oxaliplatin [47] at short time exposure and then, after saturation, the passive diffusion of the most lipophilic compounds becomes prominent.
A Varian 820-MS ICP mass spectrometer (Varian Italia, Cernusco sul Naviglio (MI), Italy) was used to perform the inductively coupled plasma mass spectrometry (ICP-MS) analyses for the determination of the platinum cellular uptake in LoVo colon cancer cells. Cells were seeded in 60 mm tissue culture dishes at a density of 500,000 cells/dish and incubated at 37 °C in a humidified atmosphere with 5% CO2. […] The platinum content was determined by ICP-MS.

The test system of data set [5] is LoVo cells. The experiment in a line: Cell cycle analysis by flow cytometry (propidium iodide). Type of data set: cell-based, human. Conditions: for Perturbation of cell cycle progression: 24 h treatment at IC50 concentrations (compound 2 at 100 µM), FCM. As to the method: Figure 9 Flow cytometric analysis of LoVo cells stained with propidium iodide after 24 h of treatment with test compounds.
Then, the experimental procedure described in our previous work was performed.
Background: Flow cytometry measures light scatter and fluorescence of single cells or particles in a stream.

The target in data set [6] is T1, TSPO (Rattus norvegicus, UniProt P16257).
T1 construct: Membranes from C6 rat glioma cells were prepared as described by Piccinonna et al; endogenous in cells; host or cells: C6 rat glioma cell membranes
T1 sequence (P16257 whole entry): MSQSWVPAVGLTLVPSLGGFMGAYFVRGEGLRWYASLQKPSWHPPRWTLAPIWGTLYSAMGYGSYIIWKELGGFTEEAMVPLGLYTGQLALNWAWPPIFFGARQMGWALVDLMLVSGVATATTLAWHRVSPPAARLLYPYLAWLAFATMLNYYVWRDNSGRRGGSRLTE
The experiment in a line: TSPO receptor binding assay, displacement of [3H]-PK 11195. The procedure:
Membranes from C6 rat glioma cells were prepared as described by Piccinonna et al. with minor modifications. In brief, cells scraped in PBS and harvested, were then homogenized with a Brinkman Polytron (Kinematica AG, Münstertäler, Germany). After centrifugation at 37,000× g for 30 min at 4 °C the resulting pellet was resuspended in ice-cold 10 mM PBS and stored at −80 °C until use.
In general terms: Loss of bound radioactivity is the signal in a displacement assay; it reports binding, not function.

The nature of data set [7]: Stability in physiological-like solution by 1H-NMR and HPLC. Type of data set: physicochemical. The procedure: The stability of 3 was investigated by ^1H-NMR spectroscopy in DMSO-d6/D2O (5:95, v/v) at pH 7.4 (2 mM phosphate buffer) and 37 °C. […] After 8 h of incubation we observed a decrease in intensity of the peaks of 3 and the concomitant increase of a new set of peaks, marked with ● in Figure 8b (H5, 8.09 ppm; H7, 7.44 ppm; H16/20 7.35 ppm), that was assigned to compound 2 by comparison with a spectrum of the TSPO ligand recorded in similar conditions.
An HPLC analysis of the sample was performed after 108 h incubation at 37 °C. […] No reduction of the Pt(IV) complex occurred under the conditions used in this experiment.
The sample was incubated at 37 °C in the dark and ^1H-NMR spectra recorded at different time intervals.
The NMR solution was further analyzed by HPLC analysis. Stationary phase: Waters Symmetry RP-C18 column, 5 μm, 4.6 × 250 mm, 100 Å. Mobile phase: phase A = water and phase B = Acetonitrile; isocratic elution 5% phase B for 5 min, linear gradient from 5% to 50% phase B in 10 min, isocratic elution 50% phase B for 7 min, linear gradient from 50% to 5% phase B in 2 min, isocratic elution 5% phase B for 6 min. Flow rate = 0.7 mL·min^−1. UV-visible detector set at 220 nm.

The mark [8] stands for this setting: after 4 h treatment at IC50 concentration.
Setting [9] is: after 24 h treatment at IC50 concentration.
Where [10] appears, read: Homo sapiens, 100 µM (maximum concentration tested).

Where two headings read alike, the source gives them in different places.

As a reminder, the viability is a per cent measure of how many cells are alive, often set against a control. Lower therefore signals more harm to the cells.

With `O=C1[O][Pt]2([Cl])([O]CCO)([NH]C3CCCCC3[NH]2)[O]C1=O` (mixture of isomers) [compound 1, Cis,trans,cis-[Pt(ethanedioato)Cl(2-hydroxyethanolato)(1R,2R-DACH)]], the IC50 amounted to 8.2 ± 0.4 µM in data set [1], 9.1 ± 0.4 µM in data set [2] and 2500 ± 500 nM in data set [3]. Moreover, the results for the “Uptake by LoVo Cells (ppb of Pt)” value in data set [4] (setting [8]) and in data set [4] (setting [9]) were 0.18 ± 0.01 ppb of Pt and 0.59 ± 0.03 ppb of Pt, respectively. Besides, the “Perturbation of cell cycle progression” value in data set [5] is “no notable changes compared to oxaliplatin”.

Turning to `O=C1[O][Pt-2]2([NH2+]C3CCCC[C@H]3[NH2+]2)[O]C1=O` (stereo in doubt) [Oxaliplatin, trans-1R,2R-diaminocyclohexane(oxalato)platinum(II)], the figures for the IC50 in data set [2] and in data set [3] were 3.1 ± 0.2 µM and 460 ± 10 nM, respectively. Further, the “Uptake by LoVo Cells (ppb of Pt)” value was 0.24 ± 0.04 ppb of Pt in data set [4] (setting [8]) and 0.38 ± 0.01 ppb of Pt in data set [4] (setting [9]). Also, the “Perturbation of cell cycle progression” value in data set [5] was “delayed the S-phase and started to accumulate cells in G2/M-phase and G0/G1 phase”.

For `CCCN(CCC)C(=O)Cc1c(-c2ccc(OCC(=O)O)cc2)nc2c(Cl)cc(Cl)cn12` [compound 2, 2-(4-(6,8-dichloro-3-(2-(dipropylamino)-2-oxoethyl)imidazo[1,2-a]pyridin-2-yl)phenoxy)acetic acid], the IC50 in data set [6] came out at 2.12 ± 0.1 nM; in data set [2] (Homo sapiens) it was 70.2 ± 0.3 µM. For the same compound, the values for the viability at 100 µM in data set [1] (setting [10]) and in data set [3] (setting [10]) were 53% and 65%, respectively. In addition, the “Perturbation of cell cycle progression” value in data set [5] was “induced a sub-G0/G1 cell population”.

For `CCCN(CCC)C(=O)Cc1c(-c2ccc(OCC(=O)OCC[O][Pt]3([Cl])[O]C(=O)C(=O)[O]3)cc2)nc2c(Cl)cc(Cl)cn12.N[C@@H]1CCCC[C@H]1N` [compound 3, cis,trans,cis-[Pt(ethanedioato)Cl{2-(2-(4-(6,8-dichloro-3-(2-(dipropylamino)-2-oxoethyl)imidazo[1,2-a]pyridin-2-yl)phenoxy)acetate)-ethanolato}(1R,2R-DACH)]], the IC50 is 18.6 ± 0.84 nM in data set [6] (displacement of [3H]-PK 11195 (0.7 nM), Table 2: rat cerebral cortex, method: C6 rat glioma cell membranes, 90 min, 25 °C, read-out: IC50 TSPO); 14.1 ± 0.1 µM in data set [1]; 16.1 ± 0.3 µM in data set [2]; 2310 nM in data set [3] (listed as cis,trans,cis-[Pt(ethanedioato)Cl{2-(2-(4-(6,8-dichloro-3-(2-(dipropylamino)-2-o))))); 2300 ± 100 nM in data set [3]. Further, the “Uptake by LoVo Cells (ppb of Pt)” value is recorded as 0.33 ± 0.02 ppb of Pt in data set [4] (setting [8]) and 0.77 ± 0.02 ppb of Pt in data set [4] (setting [9]). Further, the Induction of apoptosis result in data set [5] (24 h treatment) was “did not induce apoptosis”. Moreover, in data set [5], the “Perturbation of cell cycle progression” value was “no notable changes compared to oxaliplatin”. Besides, the “Half-life of the complex (hydrolysis of ester bond)” value in data set [7] (DMSO-d6/D2O (5:95, v/v), pH 7.4 (2 mM phosphate buffer), 37 °C, 52 μM, from NMR) was “approximately 24 h”. The “Time after which signals disappeared completely” value in data set [7] (DMSO-d6/D2O (5:95, v/v), pH 7.4 (2 mM phosphate buffer), 37 °C, 1H-NMR) was 108 h. Further, in data set [7] (pH 7.4, 37 °C, HPLC after 108 h incubation), the “Degradation behaviour in physiological-like conditions” value was “slow hydrolysis of the ester bond”.

Source of the values: paper PMC4964386, “Synthesis, Characterization, and Cytotoxicity of the First Oxaliplatin Pt(IV) Derivative Having a TSPO Ligand in the Axial Position” (International Journal of Molecular Sciences, 2016).
